These results are taken from patent publication US8592460B2, “Amino-pyridine derivatives as S1P1 /EDG1 receptor agonists” (Actelion Pharmaceuticals Ltd., priority 2007, dated 2013).

Each structure is given as a SMILES string.

In the experiment the test system is circulating lymphocytes. Description: Assessment of in vivo efficacy: circulating lymphocytes after oral administration. Set-up: species or system rat. To be noted: 6 h after oral administration of 10 mg/kg to normotensive male Wistar rats, compared to vehicle-treated group; mean ± SEM. The protocol: The efficacy of the compounds of formula (I) is assessed by measuring the circulating lymphocytes after oral administration of 3 to 30 mg/kg of a compound of formula (I) to normotensive male Wistar rats. The animals are housed in climate-controlled conditions with a 12 h-light/dark cycle, and have free access to normal rat chow and drinking water. Blood is collected before and 3, 6 and 24 h after drug administration. Full blood is subjected to hematology using Advia Hematology system (Bayer Diagnostics, Zurich, Switzerland).
All data are presented as mean±SEM. Statistical analyses are performed by analysis of variance (ANOVA) using Statistica (StatSoft) and the Student-Newman-Keuls procedure for multiple comparisons. The null hypothesis is rejected when p<0.05.
Lymphocyte counts 6 h after oral administration have been measured for 39 of the 258 exemplified compounds and are in the range of −82% to −48% with an average of −65%.
`COc1cc(-c2noc(-c3cc(C)nc(N(C)C(C)C)c3)n2)cc(Cl)c1OC[C@@H](O)CO` [Example 149, (S)-3-(2-chloro-4-{5-[2-(isopropyl-methyl-amino)-6-methyl-pyridin-4-yl]-[1,2,4]oxadiazol-3-yl}-6-methoxy-phenoxy)-propane-1,2-diol]: the Lymphocyte counts is reported as −82 ± 2%.
`CCc1cc(-c2noc(-c3cc(C)nc(N4CCCC4)c3)n2)cc(C)c1OC[C@@H](O)CNC(=O)CO` [Example 188, N—((S)-3-{2-ethyl-6-methyl-4-[5-(2-methyl-6-pyrrolidin-1-yl-pyridin-4-yl)-[1,2,4]oxadiazol-3-yl]-phenoxy}-2-hydroxy-propyl)-2-hydroxy-acetamide]: the Lymphocyte counts is reported as −76 ± 1%.
For the molecule `CCc1cc(-c2noc(-c3cc(C)nc(NC(C)C)c3)n2)cc(C)c1OC[C@@H](O)CO` [Example 199, (S)-3-{2-ethyl-4-[5-(2-isopropylamino-6-methyl-pyridin-4-yl)-[1,2,4]oxadiazol-3-yl]-6-methyl-phenoxy}-propane-1,2-diol], the Lymphocyte counts was −72 ± 3%.
On to `CCc1cc(-c2noc(-c3cc(C)nc(N(C)C(C)C)c3)n2)cc(C)c1OC[C@@H](O)CO` [Example 24, (S)-3-(2-Ethyl-4-{5-[2-(isopropyl-methyl-amino)-6-methyl-pyridin-4-yl]-[1,2,4]oxa-diazol-3-yl}-6-methyl-phenoxy)-propane-1,2-diol], for which the Lymphocyte counts was −72 ± 1%.
Then `CCc1cc(-c2nc(-c3cc(C)nc(N(CC)CC)c3)no2)cc(C)c1OC[C@@H](O)CNC(=O)CO` [Example 80, N—((S)-3-{4-[3-(2-diethylamino-6-methyl-pyridin-4-yl)-[1,2,4]oxadiazol-5-yl]-2-ethyl-6-methyl-phenoxy}-2-hydroxy-propyl)-2-hydroxy-acetamide], with −68 ± 2%; and `CCc1cc(-c2nnc(-c3cc(C)nc(N(CC)CC)c3)s2)cc(C)c1OC[C@@H](O)CNC(=O)CO` [Example 94, N—((S)-3-{4-[5-(2-diethylamino-6-methyl-pyridin-4-yl)-[1,3,4]thiadiazol-2-yl]-2-ethyl-6-methyl-phenoxy}-2-hydroxy-propyl)-2-hydroxy-acetamide], with −75 ± 6%.
